Assay [1] relates to human sebaceous glands of skin explants. Put plainly: Ex vivo sebum quantification, lipids of sebaceous glands by GC/MS. In kind it is cell-based. As to the method:
Skin explants from lifting of 3 donors (average 56.7 years old) were treated in systemic every day during 5 days in presence of dihydrotestosterone (DHT) at 30UM to induce an increase of lipogenesis mimicking a high production of sebum condition (stimulated condition) or left untreated (control condition). In parallel, skin explants were treated in presence of 0.5% of dibenzoyle peroxide (POB, positive reference) or with the Mangifera indica extract at 1% and 2%.
The tissues are extracted with an aqueous cocktail overnight at 4° C. They are then treated to take off the epidermis. A specific technique is used to recover the glands attached to these hair shafts.
After rinsing in an isotonic medium, the epidermis and its appendages are transferred to a watch glass. The sebaceous glands attached to the hair shaft of hair follicles are cut at the level of the pilosebaceous canal and deposited against the walls of the recovery vials. The sebaceous glands are recovered after dilaceration of the epidermal fragments. The glands are collected in a batch of 10 units. A washing of the glands is then performed to eliminate any contaminations of non-sebaceous origin. The sebum is then extracted with an organic cocktail overnight at room temperature. From this lipid extract, purification was carried out in order to isolate the different classes of lipids.
The identification and quantification of the different classes of lipids was realized by GC/MS.
The results are expressed in percent of the stimulated control (Untreated+DHT 30 μM). Bonferroni test multi comparison was used to do statistical analysis with #p<0.1, *p<0.05, **p<0.01, ***p<0.001.

Assay [2] deals with hiPSC derived sebocytes. The experiment in a line: In vitro lipogenesis inhibition in sebocytes derived from iPS with three ethnicities. Type of assay: cell-based, human. The conditions noted are these: 10 μM (RA10), each ethnicity, arachidonic acid induced.
For assay [3], the system named is human sebocyte cell line SEBO662AR. The experiment in a line: In vitro lipogenesis inhibition in human sebocytes cell line (Bodipy lipid labeling). In kind it is cell-based. How it is done: The sebocytes were seeded in 96-well plates (50 000 cells/well) and cultured for 24 hours in culture medium. The medium was then removed and replaced by assay medium containing the tested products including Mangifera indica extract at 0.3%, Mangiferin alone or pooled active molecules (four main phytomarkers) at their equivalent dosage in the extract at 0.3%. In the control assay medium, no product was contained. The cells were preincubated for 4 hours at those conditions. Then, the lipogenic mix (containing vitamin C, vitamin D3, insulin and calcium, and no androgens) was added in order to mimic the condition of excess of sebum, and the cells were incubated for 7 days. At mid-term, i.e. after 3 days of incubation, half of the medium was removed and the treatments were renewed (including lipogenic mix stimulation). […]
At the end of the incubation, the cells were rinsed, fixed and permeabilized. […] The labeling was quantified by the measurement of the fluorescence intensity normalized to the total number of cells (Integration of numerical data with the Developer Toolbox 1.5, GE Healthcare software). Results were expressed as Fluorescence intensity normalized to the number of cells, % stimulated control and % inhibition. The fluorescence intensity was analyzed exclusively in the lipid droplets (image analysis program based on object segmentation). […]

The test system of assay [4] is C. granulosum (ATCC 25564). The experiment in a line: MIC evaluation, optical density and percentage of inhibition. Type of assay: cell-based, Cutibacterium granulosum. The source says:
(§1) The minimum inhibitory concentration of the following active ingredients has been assessed: • Mangifera indica extract (in propanediol/water 75/25); • Vehicule (propanediol/water 75/25, expressed as Activolo3-75%); • “Pool Mangiferin” which is the pure molecule mangiferin at the same concentration in the Mangifera indica extract in propanediol/water 75/25. • “Pool Mangifera” with is the mix of the 4 molecules (mangiferin, maclurin-C-glucoside, irifluophenone-C-glucoside, gallotanin) at the same concentration in the Mangifera indica extract in propane-diol/water 75/25. […] After two days, the bacterial concentration was adjusted in reinforced clostridial broth to obtain a solution at 1.106 CFU/ml (5.104 CFU/well). […] Concentrations are expressed in % (m/v). […] The diluted bacterial suspension was added to columns 2 to 12. RCB medium was added to column 1 as negative control. Optical density was determined, which correlates to the bacterial growth.

In assay [5] the test system is H. influenzae (ATCC 49766). Described as above. In kind it is cell-based, Haemophilus influenza. The source says: The minimum inhibitory concentration of the following active ingredients has been assessed: • Mangifera indica extract (in propanediol/water 75/25); • Vehicule (propanediol/water 75/25, expressed as Activolo3-75%); • “Pool Mangiferin” which is the pure molecule mangiferin at the same concentration in the Mangifera indica extract in propanediol/water 75/25. • “Pool Mangifera” with is the mix of the 4 molecules (mangiferin, maclurin-C-glucoside, irifluophenone-C-glucoside, gallotanin) at the same concentration in the Mangifera indica extract in propane-diol/water 75/25.
H. influenzae (ATCC 49766) was cultured in Mueller Hinton broth as recommended by ATCC with 5% CO2. The Bacterial concentration was adjusted in Mueller Hinton broth to obtain a solution at 1.106 CFU/ml (5.104 CFU/well) (launch of culture at D-2). […] Two day later, the inhibition of H. influenzae was evaluated using Colony counter IUL instruments, flash and go model (reading at D2).
Concentrations are expressed in % (m/v).
The diluted bacterial suspension was added to columns 2 to 12. RCB medium was added to column 1 as negative control.
Optical density was determined, which correlates to the bacterial growth. Thereafter, an inhibition value (%) was determined for each condition using the following formula: […]
The percentage of inhibition must be higher or equal than 90% to reach the MIC.

Assay [6] deals with Propionibacterium acnes (C. acnes) phylotype IA1 ATCC 6919. The description is as above. In kind it is cell-based.
Excerpt: as §1

For assay [7], the system named is S. aureus (ATCC 33592). The description is as above. In kind it is cell-based, Staphylococcus aureus. The source says: The minimum inhibitory concentration of the following active ingredients has been assessed: • Mangifera indica extract (in propanediol/water 75/25); • Vehicule (propanediol/water 75/25, expressed as Activolo3-75%); • “Pool Mangiferin” which is the pure molecule mangiferin at the same concentration in the Mangifera indica extract in propanediol/water 75/25. • “Pool Mangifera” with is the mix of the 4 molecules (mangiferin, maclurin-C-glucoside, irifluophenone-C-glucoside, gallotanin) at the same concentration in the Mangifera indica extract in propane-diol/water 75/25. S. aureus: The day before the experiment S. aureus (ATCC 33592) was plated and grown overnight at 37° C. Colonies were resuspended in 5 mL of TSB (Tryptic Soy Broth) to obtain a 0.5 McFarland D O (≈1.10^8 CFU/ml) (launch of culture at D-1). […] Concentrations are expressed in % (m/v). […] The diluted bacterial suspension was added to columns 2 to 12. RCB medium was added to column 1 as negative control. Optical density was determined, which correlates to the bacterial growth.

Assay [8] concerns sebaceous glands of skin explants NativeSkin. The experiment in a line: Ex vivo sebaceous gland 3D volume in skin explants. In kind it is cell-based, human. The conditions noted are these: linoleic acid at 10% in Carbopol, 7 days, vs control. How it is done:
The test was carried out on 4 skin explants NativeSkin® (average 40.75 years old) from pelvic area, a full-thickness skin biopsy embedded in a solid and nourishing matrix while its epidermal surface is left in contact with air. The skin biopsy is firmly embedded in the matrix that prevents any lateral diffusion of topically applied formulations. The skin explants were treated topically once a day for 7 days in presence of linoleic acid at 10% in Carbopol Ultrez 10 in order to stimulate the lipogenesis and mimic the condition of sebum excess (stimulated condition) or treated with Carbopol only (control condition). This induction mimics a high production of sebum. In parallel, skin explants were treated in presence of Mangifera indica extract at 1% and 2% formulated in Carbopol. After treatment, skin explants were fixed in formalin. After fixation, skin explants were cleared with methanol and a mix of Benzyl Benzoate and Benzyl Alcohol. All samples were observed by fluorescence light sheet microscopy (SPIM, homemade fabrication). Stack of images were taken per sample. 3D pictures of the glands were reconstructed and the size of each sebaceous gland was quantified using Amira® software. Results were represented with the mean volume of sebaceous gland +/−standard error to the mean. […] The results are expressed in percent of the stimulated control (10% linoleic acid). […]

[9] abbreviates: POB at 0.5%, DHT stimulated, 5 days.
The mark [10] stands for this setting: DHT 30 μM stimulation vs untreated.
[11] abbreviates: Ciprofloxacin 16 10^−4 % (m/v), plate col. 8-12.

The structures appear in SMILES notation. Several values for one entry are separate records, joined by “and”; a condition that tells them apart may be missing. Equal entries are not always repeated.

For the molecule `O=C(OOC(=O)c1ccccc1)c1ccccc1` [POB, dibenzoyle peroxide], in assay [1] (setting [9]), the “free fatty acids content of sebum” value is reported as “significant reduction”, the “squalene content of sebum” value was “significant reduction” and the “triglycerides content of sebum” value is given as “significant reduction”.

Regarding `CC1=C(/C=C/C(C)=C/C=C/C(C)=C\C(=O)O)C(C)(C)CCC1` [13-cis-retinoic-acid], the lipids production entry in assay [2] is listed as “significant reduction”.

In the case of `C[C@]12CCC(=O)C[C@@H]1CC[C@@H]1[C@@H]2CC[C@]2(C)[C@@H](O)CC[C@@H]12` [DHT, dihydrotestosterone], in assay [1] (setting [10]), the “cholesterol content of sebum” value is given as “no effect”, the “free fatty acids content of sebum” value is reported as “significant increase”, the “squalene content of sebum” value is on record as “significant increase” and the “triglycerides content of sebum” value is listed as “significant increase”.

Consider `O=c1c2cc(O)c(O)cc2oc2cc(O)c([C@@H]3O[C@H](CO)[C@@H](O)[C@H](O)[C@H]3O)c(O)c12` [Mangiferin], for which the “reduction of lipogenesis compared with lipogenic mix condition” value in assay [3] (Mangiferin at the same amount as available in the extracts) is on record as −22%.

`CCCCCCCCCCCCCCOc1ccc(C(=O)OCC(=O)N(C)CC(=O)OCC)o1` [Olumacostat glasaretil, reference compound]: the “reduction of lipid production compared with lipogenic mix condition” value in assay [3] (Olumacostat glasaretyl at 1 μm, 7 days) was −37%.

For `O=C(O)c1cn(C2CC2)c2cc(N3CCNCC3)c(F)cc2c1=O` [Ciprofloxacin, reference compound], the “Percentage of inhibition, C. granulosum” value in assay [4] (setting [11]) is 97.8% and 99.0% and 98.5%. Further, the “inhibition of C. granulosum” value in assay [4] (Ciprofloxacin, text of Table 4b) worked out at 99%. Moreover, in assay [5] (setting [11]), the “Percentage of inhibition, H. influenza” value was 99.7% and 99.0%. Besides, the “inhibition of H. influenza” value in assay [5] (Ciprofloxacin, text of Table 6b) is given as 99%. For the same molecule, in assay [6] (setting [11]), the “Percentage of inhibition, C. acnes” value is 99.3% and 98.8%. Also, the “inhibition of P. acnes (FIG. 9)” value in assay [6] (Ciprofloxacin from 1×10^−4%) was 99%. Further, in assay [6] (Ciprofloxacin, text of Table 3b), the “inhibition of P. acnes” value stood at 99%. Also, the “Percentage of inhibition, S. aureus” value in assay [7] (setting [11]) worked out at 99.4%. In addition, the “inhibition of S. aureus” value in assay [7] (Ciprofloxacin, text of Table 5b) stood at 99%.

Regarding `CCCCC/C=C\C/C=C\CCCCCCCC(=O)O` [Linoleic acid, linoleic acid], the “change of 3D volume of sebaceous glands” value in assay [8] is reported as “+37%”.

For the origin of these results see patent publication US20250352458A1, “IMPROVEMENTS IN OR RELATING TO EXTRACTS” (Givaudan SA, priority 2020, published 2025).
